Measurements from ChEMBL document CHEMBL3352525, “RET Kinase Inhibitors May Treat Cancer and Gastrointestinal Disorders” (ACS Med Chem Lett, 2015).

How the values were obtained:
[1] = molecular target: T1, Proto-oncogene tyrosine-protein kinase receptor Ret (Homo sapiens, UniProt P07949); assay: Inhibition of human RET kinase in TT cells by TRET Kinase cell-based mechanistic assay
[2] = molecular target: T1, Proto-oncogene tyrosine-protein kinase receptor Ret; assay: Inhibition of human RET kinase cytoplasmic domain by Time-Resolved fluorescence reader assay

T1 sequence (P07949 whole entry, the tested form may be a part): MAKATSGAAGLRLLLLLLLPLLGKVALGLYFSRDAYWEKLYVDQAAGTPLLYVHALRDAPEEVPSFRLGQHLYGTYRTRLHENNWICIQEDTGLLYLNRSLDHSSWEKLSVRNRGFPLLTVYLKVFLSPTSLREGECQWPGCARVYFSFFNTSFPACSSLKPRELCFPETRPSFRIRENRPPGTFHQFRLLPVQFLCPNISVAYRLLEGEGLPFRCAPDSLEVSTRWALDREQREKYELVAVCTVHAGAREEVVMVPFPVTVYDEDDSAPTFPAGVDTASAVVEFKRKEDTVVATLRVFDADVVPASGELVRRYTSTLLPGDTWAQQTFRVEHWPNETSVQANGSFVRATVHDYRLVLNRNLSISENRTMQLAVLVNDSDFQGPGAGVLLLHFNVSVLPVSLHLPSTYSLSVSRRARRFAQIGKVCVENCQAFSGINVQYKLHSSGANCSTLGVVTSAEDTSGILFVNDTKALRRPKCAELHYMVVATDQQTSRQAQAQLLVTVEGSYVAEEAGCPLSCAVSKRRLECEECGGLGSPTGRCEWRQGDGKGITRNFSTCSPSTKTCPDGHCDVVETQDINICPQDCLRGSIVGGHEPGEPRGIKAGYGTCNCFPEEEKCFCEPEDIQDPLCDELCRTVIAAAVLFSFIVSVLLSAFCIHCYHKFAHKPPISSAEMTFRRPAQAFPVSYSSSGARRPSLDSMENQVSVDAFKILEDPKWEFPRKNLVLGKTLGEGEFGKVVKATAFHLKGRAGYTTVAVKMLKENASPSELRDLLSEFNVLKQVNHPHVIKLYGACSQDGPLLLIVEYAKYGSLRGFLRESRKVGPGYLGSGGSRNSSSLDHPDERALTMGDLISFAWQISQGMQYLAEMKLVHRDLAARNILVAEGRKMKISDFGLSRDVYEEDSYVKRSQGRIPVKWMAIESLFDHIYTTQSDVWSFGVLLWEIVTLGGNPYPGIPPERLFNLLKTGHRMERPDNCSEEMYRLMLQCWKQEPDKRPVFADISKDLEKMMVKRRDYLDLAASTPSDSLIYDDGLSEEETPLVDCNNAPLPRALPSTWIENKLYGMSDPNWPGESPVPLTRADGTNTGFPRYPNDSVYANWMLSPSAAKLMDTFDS

IC50 [1]: > 0.5 µM | IC50 [2]: ≥ 0.1 µM
Structure (SMILES): CCOc1cc(-c2ccc(CC(=O)Nc3ccc(Cl)c(Cl)c3)c(F)c2)c[nH]c1=O
